Values belong to the molecule of their own block, whether it stands above or below them.
Experiments:
[1] = Separation coefficients between trivalent ions (Example 2); format: physicochemical
Description: (§1) In the embodiments of the present application, after extraction, a metal ion concentration of the aqueous phase is analyzed using the inductively coupled plasma optical emission spectroscopy (ICP-OES), and a metal ion concentration of the organic phase is calculated by the difference subtraction method.
(§2) The Extractant 195 was dissolved in toluene to prepare a 0.1 mol/L organic phase, and 0.005 mol/L chloride solutions of Fe^3+, Ga^3+, In^3+, Sc^3+, Cr^3+, Al^3+, Lu^3+, Ho^3+, and Gd^3+ were prepared as aqueous phases, respectively.

[2] = Extraction performance for trivalent ions (Example 2); format: physicochemical; settings: 0.1 mol/L in toluene, 0.005 mol/L chloride solution, O/A 1:1
Description: as §1, §2

[3] = Extraction from a battery material solution (Example 3, Comparative Example 4); format: physicochemical; settings: 0.6 mol/L in Escaid 110
Description: as §1
Extractant 196 was dissolved in Escaid 110 to prepared a 0.6 mol/L organic phase, and the battery material solution contained Ni (46.20 g/L), Co (20.56 g/L), Mn (23.93 g/L), Ca (0.43 g/L), and Mg (0.21 g/L).
The extractant was dissolved in Escaid 110 and prepared to a 0.6 mol/L organic phase, and a battery material solution contained Ni (46.20 g/L), Co (20.56 g/L), Mn (23.93 g/L), Ca (0.43 g/L), and Mg (0.21 g/L). […] By observing the experimental phenomenon where the extractant exists in the battery material solution system, it can be seen that when the aqueous phase equilibrium pH is greater than 5.33, the phase separation phenomenon becomes worse, the aqueous phase is turbid and viscous, and the organic phase gradually becomes colorless; it can be seen from FIG. 7 that when the aqueous phase equilibrium pH is greater than 5.33, the extraction capability of the extractant for metal ions decreases.

[4] = Extraction for a magnesium-enriched nickel chloride solution (Example 5); format: physicochemical; settings: 0.31 mol/L in dodecane; chloride solution 1.33 g/L Ni, 4 g/L Mg; O/A 1:1
Description: as §1
Extractant 191 was dissolved in dodecane to prepare a 0.31 mol/L organic phase, and an aqueous phase was the magnesium-enriched nickel chloride solution containing 1.33 g/L Ni and 4 g/L Mg.

[5] = Separation coefficients between non-ferrous metal ions (Example 1, Comparative Example 3); format: physicochemical
Description: as §1
(§3) Extractant 191 was dissolved in dodecane to prepare a 0.2 mol/L organic phase, and 0.01 mol/L sulfate solutions of Cu^2+, Zn^2+, Cd^2+, Ni^2+, Co^2+, Mn^2+, Ca^2+, Mg^2+, and Li^+ were prepared as aqueous phases, respectively.
This comparative example differs from Example 1 in that Extractant 191 was replaced with extractant Versatic 10 (commercially available, with an acid content of 98%).

[6] = Extraction performance for non-ferrous metal ions (Example 1); format: physicochemical; settings: 0.2 mol/L in dodecane, 0.01 mol/L sulfate solution, O/A 1:1
Description: as §1, §3

[7] = Back extraction of organic phase loaded with rare earth ions (Example 8); format: physicochemical; settings: organic phase loaded with 0.10 mol/L Lu; 1.0 mol/L hydrochloric acid; O/A 1:1
[8] = organic phase loaded with Lu; 4 mol/L hydrochloric acid (general practice); cited from earlier work
[9] = Extraction performance for rare earth ions, mixed chloride solution (Example 4); format: physicochemical; settings: 2 mol/L in dodecane, O/A 1:1, ammonia saponification
Description: as §1

[10] = Saturation capacity test for Ni^2+ (Example 7); format: physicochemical; settings: 0.6 mol/L in dodecane, saponified to 60%; repeated contact with 50 g/L NiSO4
Excerpt: The organic phase was back-extracted and the saturation capacity of Extractant 196 for Ni^2+ was obtained to be about 16.9 g/L.

[11] = aqueous phase equilibrium pH greater than 5.33, O/A 8:1
[12] = pH½, Example 1 / Comparative Example 3 system

Separation coefficients between various ions (all pairs) ([1]; Fe^3+, Ga^3+, In^3+, Sc^3+, Cr^3+, Al^3+, Lu^3+, Ho^3+, Gd^3+): greater than 1
Separation coefficient Fe^3+ / Al^3+ ([1]; Fe^3+, row Al^3+, Example 2 system): 95499.26
Separation coefficient Fe^3+ / Cr^3+ ([1]; Fe^3+, row Cr^3+, Example 2 system): 1862.09
Separation coefficient Fe^3+ / Ga^3+ ([1]; Fe^3+, row Ga^3+, Example 2 system): 95.50
Separation coefficient Fe^3+ / In^3+ ([1]; Fe^3+, row In^3+, Example 2 system): 177.83
Separation coefficient Fe^3+ / Sc^3+ ([1]; Fe^3+, row Sc^3+, Example 2 system): 1230.27
Separation coefficient Ga^3+ / Al^3+ ([1]; Ga^3+, row Al^3+, Example 2 system): 1000.00
Separation coefficient Ga^3+ / Cr^3+ ([1]; Ga^3+, row Cr^3+, Example 2 system): 19.50
Separation coefficient Ga^3+ / In^3+ ([1]; Ga^3+, row In^3+, Example 2 system): 1.86
Separation coefficient Ga^3+ / Sc^3+ ([1]; Ga^3+, row Sc^3+, Example 2 system): 12.88
Separation coefficient In^3+ / Al^3+ ([1]; In^3+, row Al^3+, Example 2 system): 537.03
Separation coefficient In^3+ / Cr^3+ ([1]; In^3+, row Cr^3+, Example 2 system): 10.47
Separation coefficient In^3+ / Sc^3+ ([1]; In^3+, row Sc^3+, Example 2 system): 6.92
Separation coefficient Cr^3+ / Al^3+ ([1]; column Cr^3+, row Al^3+, Example 2 system): 51.29
Separation coefficient Ho^3+ / Gd^3+ ([1]; column Ho^3+, row Gd^3+, Example 2 system): 3.98
Separation coefficient Lu^3+ / Gd^3+ ([1]; column Lu^3+, row Gd^3+, Example 2 system): 15.85
Separation coefficient Lu^3+ / Ho^3+ ([1]; column Lu^3+, row Ho^3+, Example 2 system): 3.98
Separation coefficient Sc^3+ / Al^3+ ([1]; column Sc^3+, row Al^3+, Example 2 system): 77.62
Separation coefficient Sc^3+ / Cr^3+ ([1]; column Sc^3+, row Cr^3+, Example 2 system): 1.51
Extraction pH½ for Al^3+ [2]: 3.60
Extraction pH½ for Cr^3+ [2]: 3.03
Extraction pH½ for Ga^3+ [2]: 2.60
Extraction pH½ for Gd^3+ [2]: 5.46
Extraction pH½ for Ho^3+ [2]: 5.26
Extraction pH½ for In^3+ [2]: 2.69
Extraction pH½ for Lu^3+ [2]: 5.06
Extraction pH½ for Sc^3+ [2]: 2.97
Extraction pH½ for Fe^3+ ([2]; pH by 8 mol/L NaOH saponification): 1.94
SMILES: CCCCCCCC(CCCCC)C(=O)O (stereo not drawn) [Extractant 195]

Extraction capability for metal ions (FIG. 7) [3, 11]: decreases
Phase separation phenomenon [3, 11]: becomes worse
SMILES: CCCCCCCCCCCCCCCCCC(=O)O [stearic acid, reference compound]

Separation coefficient between nickel and magnesium [4]: about 833
Separation coefficient Cd^2+ / Ca^2+ ([5]; Cd^2+, row Ca^2+, Example 1 system): 75.86
Separation coefficient Cd^2+ / Co^2+ ([5]; Cd^2+, row Co^2+, Example 1 system): 17.38
Separation coefficient Cd^2+ / Mg^2+ ([5]; Cd^2+, row Mg^2+, Example 1 system): 263.03
Separation coefficient Cd^2+ / Mn^2+ ([5]; Cd^2+, row Mn^2+, Example 1 system): 18.20
Separation coefficient Cd^2+ / Ni^2+ ([5]; Cd^2+, row Ni^2+, Example 1 system): 8.71
Separation coefficient Co^2+ / Ca^2+ ([5]; Co^2+, row Ca^2+, Example 1 system): 4.37
Separation coefficient Co^2+ / Mg^2+ ([5]; Co^2+, row Mg^2+, Example 1 system): 15.14
Separation coefficient Co^2+ / Mn^2+ ([5]; Co^2+, row Mn^2+, Example 1 system): 1.05
Separation coefficients between various ions (all pairs) ([5]; Cu^2+, Zn^2+, Cd^2+, Ni^2+, Co^2+, Mn^2+, Ca^2+, Mg^2+, Li^+): greater than 1
Separation coefficient Cu^2+ / Ca^2+ ([5]; Cu^2+, row Ca^2+, Example 1 system): 457088.19
Separation coefficient Cu^2+ / Cd^2+ ([5]; Cu^2+, row Cd^2+, Example 1 system): 6025.60
Separation coefficient Cu^2+ / Co^2+ ([5]; Cu^2+, row Co^2+, Example 1 system): 104712.85
Separation coefficient Cu^2+ / Mg^2+ ([5]; Cu^2+, row Mg^2+, Example 1 system): 1584893.19
Separation coefficient Cu^2+ / Mn^2+ ([5]; Cu^2+, row Mn^2+, Example 1 system): 109647.82
Separation coefficient Cu^2+ / Ni^2+ ([5]; Cu^2+, row Ni^2+, Example 1 system): 52480.75
Separation coefficient Cu^2+ / Zn^2+ ([5]; Cu^2+, row Zn^2+, Example 1 system): 691.83
Separation coefficient Ni^2+ / Ca^2+ ([5]; Ni^2+, row Ca^2+, Example 1 system): 8.71
Separation coefficient Ni^2+ / Co^2+ ([5]; Ni^2+, row Co^2+, Example 1 system): 2.00
Separation coefficient Ni^2+ / Mg^2+ ([5]; Ni^2+, row Mg^2+, Example 1 system): 30.20
Separation coefficient Ni^2+ / Mn^2+ ([5]; Ni^2+, row Mn^2+, Example 1 system): 2.09
Separation coefficient Zn^2+ / Ca^2+ ([5]; Zn^2+, row Ca^2+, Example 1 system): 660.69
Separation coefficient Zn^2+ / Cd^2+ ([5]; Zn^2+, row Cd^2+, Example 1 system): 8.71
Separation coefficient Zn^2+ / Co^2+ ([5]; Zn^2+, row Co^2+, Example 1 system): 151.36
Separation coefficient Zn^2+ / Mg^2+ ([5]; Zn^2+, row Mg^2+, Example 1 system): 2290.87
Separation coefficient Zn^2+ / Mn^2+ ([5]; Zn^2+, row Mn^2+, Example 1 system): 158.49
Separation coefficient Zn^2+ / Ni^2+ ([5]; Zn^2+, row Ni^2+, Example 1 system): 75.86
Separation coefficient Ca^2+ / Mg^2+ ([5]; column Ca^2+, row Mg^2+, Example 1 system): 3.47
Separation coefficient Mn^2+ / Ca^2+ ([5]; column Mn^2+, row Ca^2+, Example 1 system): 4.17
Separation coefficient Mn^2+ / Mg^2+ ([5]; column Mn^2+, row Mg^2+, Example 1 system): 14.45
βNi/Ca (separation coefficient) [5, 12]: 8.71
βNi/Co (separation coefficient) [5, 12]: 2.00
βNi/Mg (separation coefficient) [5, 12]: 30.2
βNi/Mn (separation coefficient) [5, 12]: 2.09
βNi/Zn (separation coefficient) [5, 12]: 75.86
Separation coefficients higher compared with Versatic 10 ([5]; same test condition): 20-30%
Extraction pH½ for Ca^2+ [6]: 7.32
Extraction pH½ for Cd^2+ [6]: 6.38
Extraction pH½ for Co^2+ [6]: 7.00
Extraction pH½ for Li^+ [6]: 9.75
Extraction pH½ for Mg^2+ [6]: 7.59
Extraction pH½ for Mn^2+ [6]: 7.01
Extraction pH½ for Ni^2+ [6]: 6.85
Extraction pH½ for Zn^2+ [6]: 5.91
Extraction pH½ for Cu^2+ ([6]; pH by 6 mol/L NaOH saponification): 4.49
SMILES: CCCCCCCCCCC(CCCCCC)C(=O)O (stereo not drawn) [Extractant 191]
Extraction order of nickel and magnesium (FIG. 6) [4]: extracts nickel in order before magnesium
Extraction order of ions (FIG. 1) ([5]; E%-pH curves, Example 1): extracts nickel and cobalt ions in order before calcium and magnesium

Back extraction rate [7]: greater than 99%
SMILES: CCCCCCCCC(CC)C(=O)O (stereo not drawn) [Extractant 192]

SMILES: CCCCC(CC)COP(=O)(O)CC(CC)CCCC (stereo not drawn) [Extractant P507]
Primary back extraction rate [8]: about 80%

Saturation capacity for Ni^2+ [10]: about 16.9 g/L
Extraction of Ni, Co and Mn from the battery material solution ([3]; O/A 8:1, pH greater than 6.8): almost completely extracted
Extraction rate of Ca and Mg from the battery material solution ([3]; O/A 8:1, pH greater than 6.8): low extraction rate
Extraction of Ni, Co and Mn from the battery material solution ([3]; pH less than 7.2, O/A 5:1 and 8:1): selectively extracted
SMILES: CCCCCCCCC(CCCCCC)C(=O)O (stereo not drawn) [Extractant 196]
Extraction ability for rare earth ions (FIG. 5) [9]: gradually decreases from heavy rare earths to light rare earths

From patent publication US20230243016A1, “APPLICATIONS OF CARBOXYLIC COMPOUND SERVING AS EXTRACTING AGENT AND METAL ION EXTRACTION METHOD” (BOTREE CYCLING SCI & TECH CO., LTD., priority 2020, published 2023)
